Paper PMC12622802, “Potent kinase inhibitors from the Merck KGaA OGHL: Novel hits against Trypanosoma brucei with potential for repurposing” (PLOS Neglected Tropical Diseases, 2025)
“Also recorded” adds a separate entry of the source. Where two headings read alike, the source gives them in different places.

Experiments:
[1] = Cytotoxicity, resazurin reduction assay, Raw264.7; type: cell-based, murine; settings: mouse
Description: (§1) For cytotoxicity testing, they were seeded (90 µL) in 96-well plates at a density of 1x10^4 cells/well, in duplicate, and allowed to adhere overnight. […] Cell viability was then assessed using the resazurin reduction assay, as described above. […] Data were analysed using Microsoft Excel and GraphPad Prism 8.0. Nonlinear regression with a sigmoidal dose-response fit model was applied to the data to determine IC50 and CC50 values. Results represent the mean ± standard deviation (SD) from two independent experiments performed in duplicate.

[2] = test system: bloodstream forms of T. b. brucei Lister 427; assay: Resazurin reduction growth inhibition assay against bloodstream forms of T. b. brucei; type: cell-based, Trypanosoma brucei brucei; settings: read-out: IC50 ± SD (µM) T. b. b.
Description: Bloodstream forms of T. b. brucei Lister 427, a virulent laboratory strain of Trypanosoma brucei were cultured in HMI-9 medium as previously described. […] The resulting signal measured between 570 nm and 590 nm, is directly proportional to the quantity of viable parasites. […] After incubation, a working solution of resazurin (0.15 mg/mL in DPBS) was added to the plates in a 1:10 (v/v) ratio, followed by incubation for 4 hours at 37 °C with 5% CO2. Fluorescence was measured using an Infinite M200 microplate reader (Tecan) at excitation and emission wavelengths of 530 nm and 590 nm, respectively. Compound achieving ≥ 50% inhibition of trypanosomes were selected for further dose-response studies.
Compounds that adhered to the cutoff criterion (≥ 50% inhibition) were serially diluted and tested for their half-maximal inhibitory concentrations (IC50). […] Dose-response curves were generated using GraphPad Prism software (version 8.0). […]
Data were analysed using Microsoft Excel and GraphPad Prism 8.0. Nonlinear regression with a sigmoidal dose-response fit model was applied to the data to determine IC50 and CC50 values.

[3] = Cytotoxicity, resazurin reduction assay, HepG2; type: cell-based, human; settings: human
Description: (§2) Vero E6 (African green monkey kidney), Raw264.7 (murine macrophages) and HepG2 (human hepatocyte carcinoma) cell lines, sourced from the American Type Culture Collection, were cultured in DMEM supplemented with 10% (v/v) heat-inactivated fetal bovine serum, 1% (v/v) non-essential amino acids, and 1% (v/v) penicillin-streptomycin. Cells were maintained at 37 °C in a 5% CO2 atmosphere. For cytotoxicity testing, they were seeded (90 µL) in 96-well plates at a density of 1x10^4 cells/well, in duplicate, and allowed to adhere overnight. Serial dilutions (50-0.08 µM) of the compounds were prepared, and 10 µL of each were incubated with the monolayer for 48 hours. Podophyllotoxin was tested as a positive control at 10 μM and 0.5% DMSO (100% cell viability) was used as negative control. Cell viability was then assessed using the resazurin reduction assay, as described above. The 50% cytotoxic concentration (CC50) was calculated using GraphPad Prism software (version 8.0), and selectivity indices (SIs) were determined by dividing the […].
(§3) Data were analysed using Microsoft Excel and GraphPad Prism 8.0. Nonlinear regression with a sigmoidal dose-response fit model was applied to the data to determine IC50 and CC50 values. Results represent the mean ± standard deviation (SD) from two independent experiments performed in duplicate.

[4] = Cytotoxicity, resazurin reduction assay, Vero; type: cell-based; settings: African green monkey
Description: as §1

[5] = test system: bloodstream forms of T. b. brucei; assay: Rescue experiment (4 h exposure, washout, drug-free medium); type: cell-based, Trypanosoma brucei brucei; settings: 72 hours monitoring, 4xIC50 and 8xIC50
Description: (§4) To evaluate the killing kinetics of selected compounds, bloodstream forms of T. b. brucei (2 x 10⁵ cells/mL) were incubated in normal culture conditions in the presence of compounds at 8IC50, 4IC50, IC50, and 0.25IC50 concentrations in 24-well plates. Upon incubation, cultures were centrifuged at 0, 4, 8, 12, 24, 30, 36, 48, 60, and 72 hours’ time intervals at 2,500 rpm followed by motile trypanosomes enumeration using a Lumascope LS520 inverted microscope. To determine the mode of inhibition (parasitostatic or parasiticidal), a rescue experiment was conducted. Trypanosomes were exposed to the test doses (8IC50, 4IC50, IC50, and 0.25IC50) of the compounds for 4 hours. They were then washed three times with phosphate buffer saline (DPBS 1X), centrifuged at 2,500 rpm for 7 minutes, and resuspended in complete drug-free medium. These parasites were cultured under the same conditions, and motile organisms were enumerated with the Neubauer chamber at regular intervals over 72 hours. Data were plotted using GraphPad Prism 8.0 to determine the inhibition kinetics and classify the inhibitors as cidal or static. Pentamidine isethionate served as the reference compound and experiments were performed in duplicate.

[6] = test system: bloodstream forms of T. b. brucei; assay: Trypanosome killing kinetics (time-kill assay); type: cell-based, Trypanosoma brucei brucei; settings: for activity profile in time-kill assay (trypanocidal or cytostatic): 8IC50, 4IC50, IC50, 0.25IC50, over 72 hours
Description: as §4

[7] = target: human CX3C motif chemokine receptor 1 (CX3CR1); set-up: method as in printed; settings: known human target; ref not given; cited from earlier work
[8] = test system: HepG2 (human hepatocyte carcinoma) cells; assay: Cytotoxicity, resazurin reduction assay, HepG2; type: cell-based
Description: as §2, §3

[9] = target: leucine-rich repeat kinase 2 (LRRK2); set-up: method as in ref 31 = [31]; 31 Garcia-Echeverria C , Kanazawa T , Kawahara E , Masuya K , Matsuura N , Miyake T . 2, 4-pyrimidinediamines useful in the treatment of neoplastic diseases, inflammatory and immune system disorders .; settings: cited from earlier work
[10] = target: focal adhesion kinase (FAK); set-up: method as in ref 31 = [31]; 31 Garcia-Echeverria C , Kanazawa T , Kawahara E , Masuya K , Matsuura N , Miyake T . 2, 4-pyrimidinediamines useful in the treatment of neoplastic diseases, inflammatory and immune system disorders .; settings: cited from earlier work
[11] = test system: insulin-like growth factor 1 (IGF-1R); set-up: method as in ref 31 = [31]; 31 Garcia-Echeverria C , Kanazawa T , Kawahara E , Masuya K , Matsuura N , Miyake T . 2, 4-pyrimidinediamines useful in the treatment of neoplastic diseases, inflammatory and immune system disorders .; settings: cited from earlier work
[12] = target: anaplastic lymphoma kinase (ALK); set-up: method as in ref 31 = [31]; 31 Garcia-Echeverria C , Kanazawa T , Kawahara E , Masuya K , Matsuura N , Miyake T . 2, 4-pyrimidinediamines useful in the treatment of neoplastic diseases, inflammatory and immune system disorders .; settings: cited from earlier work
[13] = Trypanosoma brucei, 72 h, confirmation screen, powdered form, 72 hours
[14] = Trypanosoma brucei, 72 h, primary screen, DMSO stock solution, bloodstream form T. b. brucei Lister 427, 72 hours
[15] = primary screen, DMSO stock solution, bloodstream form T. b. brucei Lister 427, 72 hours

| Compound | IC50 [2, 14] | IC50 [2, 15] | CC50 at 48 h [3] | CC50 [8] | further results |
| --- | --- | --- | --- | --- | --- |
| CN(C)C(=O)/C=C/C(=O)c1ccc(SCc2ccc(Cl)cc2Cl)cc1 [OGHL00006, (E)-4-(4-((2,4-dichlorobenzyl)thio)phenyl)-N,N-dimethyl-4-oxobut-2-enamide] | ≤ 1 µM | 0.56 ± 0.001 µM | 17.5 ± 0.94 µM | – | CC50 at 48 h [1]: 2.2 ± 0.05 µM; IC50 [2, 13]: 0.6 ± 0.1 µM; CC50 at 48 h [4]: 1.2 ± 0.07 µM; effect after short exposure and washout (reversible or irreversible) [5]: irreversible trypanocidal activity; also recorded: irreversible trypanocidal effects; activity profile in time-kill assay (trypanocidal or cytostatic) [6]: strong trypanocidal activity; IC50 [7]: 526 nM |
| Oc1ccc2[nH]cc(CCCCN3CC=C(c4ccccc4)CC3)c2c1 [OGHL00007] | – | 5.3 ± 0.7 µM | – | > 50 µM | – |
| CCC(C)[S+]([O-])c1ccc(-c2nc3ccncc3[nH]2)c(OC)c1 (stereo not drawn) [OGHL00019] | – | 2.49 ± 0.1 µM | – | 19.8 ± 2.72 µM | – |
| COc1ccc(C(=O)N2CCC(C)(C)c3cc(C4=NNC(=O)SC4C)ccc32)cc1OC (stereo not drawn) [OGHL00025] | 9.22 ± 0.0007 µM | – | 33.3 ± 2.83 µM | – | – |
| CCN=C(c1ccc(OC)c(OC)c1)N1CCCc2cc(C3=NNC(=O)SC3C)ccc21 (stereo not drawn) [OGHL00032] | – | – | 48.43 ± 0.25 µM | – | IC50 ([2]; Trypanosoma brucei, 72 h): 5.04 ± 0.16 µM |
| CN(CCCCc1ccc(F)cc1)CCC(=O)c1ccc2[nH]c(=O)oc2c1 [OGHL00087] | – | 8.62 ± 0.093 µM | – | 27.3 ± 4.5 µM | – |
| CCCc1nn(C)c2c(=O)[nH]c(-c3cc(C(=O)N=C(N)N)ccc3OCC)nc12 [OGHL00103] | – | 7.8 ± 0.07 µM | – | 41.5 ± 3.4 µM | – |
| CNC(=O)c1cc(Oc2ccc(NC(=O)Nc3cc(C(F)(F)F)ccc3-n3ccnc3)cc2)ccn1 [OGHL00130] | 3 µM | 3.05 ± 0.14 µM | 12.9 ± 0.5 µM | – | – |
| CNS(=O)(=O)c1ccccc1Nc1nc(Nc2cc(OC)c(OC)cc2C)ncc1Br [OGHL00133, 2-((5-bromo-2-((4,5-dimethoxy-2-methylphenyl)amino)pyrimidin-4-yl)amino)-N-methylbenzenesulfonamide] | – | – | > 50 µM | – | CC50 at 48 h [1]: 4.5 ± 0.1 µM; IC50 [9]: 0.13 nM; IC50 [10]: 2.8 nM; IC50 [11]: < 80 nM; IC50 [12]: 30 nM; IC50 [2, 13]: 0.007 ± 0.00073 µM; CC50 at 48 h [4]: 1.01 ± 0.09 µM; effect after short exposure and washout (reversible or irreversible) [5]: reversible inhibitory effect; activity profile in time-kill assay (trypanocidal or cytostatic) [6]: cytostatic activity |
| CNS(=O)(=O)c1ccccc1Nc1nc(Nc2ccc(N3CCOCC3)cc2OC)ncc1Br [OGHL00134] | 1.3 µM | 1.31 ± 0.22 µM | 22.1 ± 5.06 µM | – | – |
| COc1cccc(CNc2nnc(-c3c[nH]c4ncccc34)o2)c1 [OGHL00138] | – | 1.55 ± 0.2 µM | – | 23.1 ± 3.57 µM | – |
| CCOc1cc(CCNC(=O)C[C@H]2S[C@@H](c3ccc(C#Cc4ccccc4)cc3)N(c3cccc(C(N)=O)c3)C2=O)ccc1OC [OGHL00152] | 8.87 ± 0.7 µM | – | – | – | – |
| Cc1ccccc1-c1ccc(-c2nc(-c3ccc(CN(C)CCC(=O)O)c(F)c3)no2)cc1OCC1CC1 [OGHL00165] | – | 8.83 ± 0.09 µM | – | > 50 µM | – |
| CCOc1cc(CCNC(=O)C[C@H]2S[C@@H](c3ccc(C#Cc4ccccc4)cc3)N(c3cccc(C(N)=O)c3)C2=O)ccc1O [OGHL00183] | 9.64 ± 0.05 µM | – | 50 µM | – | – |
| COc1nc(/C=C/c2nc3n(n2)CCCC3c2ccccc2C(F)(F)F)ccc1-n1cnc(C)c1 (stereo not drawn) [OGHL00208] | 7.53 ± 1.27 µM | – | 2.36 ± 0.52 µM | – | – |
| COc1nc(/C=C/c2nc3n(n2)CCC[C@@H]3c2ccccc2C(F)(F)F)ccc1-n1cnc(C)c1 [OGHL00211] | 2.37 ± 0.22 µM | – | 5.94 ± 2.55 µM | – | – |
| COc1ccc(OC)c(CCNC(=O)c2cn3cc(-c4cc(OC)ccc4OC)nc3s2)c1 [OGHL00225] | 9.86 ± 0.0007 µM | – | > 50 µM | – | – |
| COc1cc(OC)c(CCNC(=O)c2cn3cc(-c4cc(OC)ccc4OC)nc3s2)c(OC)c1 [OGHL00227] | 2.8 ± 0.08 µM | – | > 50 µM | – | fold increase in selectivity ([8]; relative to the analogue of the same series named in the sentence): 3.5 fold |
| COc1cc(OC)c(CCNC(=O)c2ccc3nc(-c4cc(OC)ccc4OC)cn3c2)c(OC)c1 [OGHL00231] | 9 µM | 9.06 ± 0.13 µM | > 50 µM | – | – |
| COc1ccc(OCCCO)cc1-c1cn2cc(-c3nnc(NCCCCc4ccccc4)o3)ccc2n1 [OGHL00236] | – | 6.19 ± 0.4 µM | – | 9.07 ± 0.94 µM | – |
| COc1cc(OC)c(CCNC(=O)c2cn3cc(-c4cc(OCC#N)ccc4OC)nc3s2)c(OC)c1 [OGHL00238] | 2.67 ± 0.7 µM | – | 2.01 ± 0.46 µM | – | – |
| COc1ccc(OCC(N)=O)cc1-c1cn2cc(C(=O)NCCc3c(OC)cccc3OC)sc2n1 [OGHL00241] | 2.28 ± 0.04 µM | – | 9.259 ± 0.019 µM | – | – |
| COc1cc(C(=O)N(C)C)ccc1-c1cc2nccc(-c3ccc4ccncc4c3)c2o1 [OGHL00250] | – | 2.15 ± 0.2 µM | – | > 50 µM | – |
| N=C(N)c1ccc(OCCCCCOc2ccc(C(=N)N)cc2)cc1 [Pentamidine isethionate, reference compound] | – | – | – | – | activity profile in time-kill assay (trypanocidal or cytostatic) [6]: complete and sustained parasite clearance across all tested concentrations; time of exposure to parasite killing / growth arrest ([6]; time-kill assay): ≤ 24 h |
| COc1cc([C@@H]2c3cc4c(cc3[C@H](O)[C@H]3COC(=O)[C@H]23)OCO4)cc(OC)c1OC [Podophyllotoxin, reference compound] | – | – | – | – | CC50 at 48 h ([1]; confirmation screen, powdered form, 48 hours, read-out: CC50 ± SD (µM) Raw): 0.016 ± 0.002 µM; CC50 at 48 h ([3]; primary screen, DMSO stock solution, 48 hours, read-out: CC50 ± SD (µM) HepG2): 0.031 ± 0.009 µM; CC50 at 48 h ([4]; confirmation screen, powdered form, 48 hours, read-out: CC50 ± SD (µM) Vero): 0.08 ± 0.005 µM |
